This series can be described thus: Paraffin wax solubility test. Conditions: 2.0 g paraffin wax in 98 g solvent, 25 °C; for Dissolution Time: stirring at 350 rpm; for Observation: up to 24-hours stirring. Format: physicochemical. The text has this: A method to evaluate the capability of a solvent to dissolve paraffin wax was developed and it helps to understand how will be performed certain solvent when applied to an epicuticular surface of a plant or an insect.

For `CCCCCCCCCCCC(=O)OCC(CC)CCCC` (stereo not shown) [2-ethylhexyl laurate], the “Dissolution Time” value amounted to 930 min and the Observation result was “stable at 25° c”.

Take `CCCCCCCCCC(=O)N(C)C` [N,N-dimethyldecanamide]: the Observation result is “undissolved after”. Consider `O=C1CCCCC1` [cyclohexanone], for which the Observation result is reported as “undissolved after”. As for `C[S+](C)[O-]` [dimethyl sulfoxide], the Observation entry is “undissolved after”. For `CCCCCCCCCCCC(=O)OCCC(C)C` [isoamyl laurate], the “Dissolution Time” value worked out at 620 min and the Observation entry is “stable at 25° c”. Turning to `CCCCCCCCCCCC(=O)OCC(C)C` [isobutyl laurate], the “Dissolution Time” value is 340 min and the Observation result was “stable at 25° c”. For `CCCCCCCCCCCC(=O)OC(C)C` [isopropyl laurate], the “Dissolution Time” value was 102 min and the Observation entry is reported as “stable at 25° c”.

Take `CCCCCCCCCCCCCC(=O)OC(C)C` [isopropyl myristate]: the Observation entry is listed as “stable at 25° c”. For `CCCCCCCCCCCC(=O)OC` [methyl laurate], the “Dissolution Time” value was found to be 300 min and the Observation result was “stable at 25° c”. Take `CC1COC(=O)O1` (stereo not shown) [propylene carbonate]: the Observation result is recorded as “undissolved after”.

With `OCC1CCCO1` (stereo not shown) [tetrahydrofurfural alcohol], the Observation result is “undissolved after”.
